Measured values published in patent US10905118B2, “Triscationic amphiphile compounds, compositions, and methods for making same” (James Madison Innovations, Inc., priority 2014, dated 2021).
≈ marks a conversion by molar mass, not a printed value.

Columns and labels:
Enterococcus faecalis = assay: Minimum inhibitory concentration, E. faecalis; type: cell-based, Enterococcus faecalis ATCC 29212; details: Mueller-Hinton Broth, 37° C., 72 h
Protocol: (§1) The MIC values of all compounds from both double-tailed series were determined for four Gram-positive (Staphylococcus aureus, Enterococcus faecalis, Streptococcus agalactiae, and Bacillus cereus) and two Gram-negative (Escherichia coli and Pseudomonas aeruginosa) strains, which are shown in Table 3.
(§2) The Gram-positive bacterial strains used tested were Staphylococcus aureus subsp. aureus ATCC® 29213™, Enterococcus faecalis ATCC® 29212™, Bacillus cereus, and Streptococcus agalactiae J48.^58 The Gram-negative bacterial strains used were Escherichia coli ATCC® 25922™ and Pseudomonas aeruginosa ATCC® 27853™. All strains were grown in 1× Mueller-Hinton Broth at 37° C. for 12-24 h. For the MIC and combination studies, bacterial suspensions were prepared by diluting overnight cultures to 5×10^6 CFU/mL in 2× Mueller-Hinton Broth, so that when amphiphile solutions are added the final broth strength is 1×.
(§3) The methods used to determine the MIC and MBC were performed as previously described and followed the standards set forth by the Clinical and Laboratory Standards Institute (See Ladow, J. E.; Warnock, D. C.; Hamill, K. M.; Simmons, K. L.; Davis, R. W.; Schwantes, C. R.; Flaherty, D. C.; Willcox, J. A. L.; Wilson-Henjum, K.; Caran, K. L.; Minbiole, K. P. C.; Seifert, K. Bicephalic amphiphile architecture affects antibacterial activity. Eur. J. Med. Chem. 2011, 46, 4219-4226 and P. A. Wayne Methods for dilution antimicrobial tests for bacteria that grow aerobically. 2009.). Briefly, compounds were serially diluted and 100 μL of each dilution were added to the wells of a 96-well flat-bottomed microtiter plate in triplicate. After adding 100 μL of the bacterial cell suspension, the plates were incubated at 37° C. for 72 h. […] The MIC was considered to be bactericidal if the MBC was the same concentration or one concentration higher in the dilution series as the MIC, per Motyl, M.; Dorso, K.; Barrett, J.; Giacobbe, R. Basic microbiological techniques used in antibacterial drug discovery. Curr. Protoc. Pharmacol. 2006, Chapter 13.

Staphylococcus aureus = assay: Minimum inhibitory concentration, S. aureus; type: cell-based, Staphylococcus aureus subsp. aureus ATCC 29213; details: Mueller-Hinton Broth, 37° C., 72 h
Protocol: as §1, §2, §3

Escherichia coli = assay: Minimum inhibitory concentration, E. coli; type: cell-based, Escherichia coli ATCC 25922; details: Mueller-Hinton Broth, 37° C., 72 h
Protocol: as §1, §2, §3

Pseudomonas aeruginosa [1] = assay: Minimum inhibitory concentration, P. aeruginosa; type: cell-based, Pseudomonas aeruginosa ATCC 27853; details: Mueller-Hinton Broth, 37° C., 72 h
Protocol: as §1, §2, §3

Streptococcus agalactiae = assay: Minimum inhibitory concentration, S. agalactiae; type: cell-based, Streptococcus agalactiae J48; details: Mueller-Hinton Broth, 37° C., 72 h
Protocol: as §1, §2, §3

[2] = Isothermal titration calorimetry: critical aggregation concentration and thermodynamics of aggregation; type: physicochemical; details: 37° C., single-tailed M-1,1,n series; for CAC: ITC
Bacillus cereus = assay: Minimum inhibitory concentration, B. cereus; type: cell-based; details: Mueller-Hinton Broth, 37° C., 72 h
Protocol: as §1, §2, §3

[3] = Isothermal titration calorimetry: critical aggregation concentration and thermodynamics of aggregation; type: physicochemical; details: for ΔHagg / CMC / ΔHmic: ITC; for ΔHagg / −TΔSmic / ΔGmic / CMC / ΔHmic: 37° C.; for −TΔSmic: Gibbs-Helmholtz equation; for −TΔSmic / ΔGmic: double-tailed series; for ΔGmic: approximated with RT ln(CAC/55.5); for CMC / ΔHmic: pure water, double-tailed M-P and M-1 series; for −TΔSagg term (sign, in words): Table 1
Protocol: Isothermal titration calorimetry (ITC) was used to determine the critical aggregation concentration (CAC) and the thermodynamic parameters at 37° C. associated with aggregate formation for each double-tailed amphiphile for the M-P and M-1 series, as shown in Table 1.
A Nano ITC was used to measure the heat change associated with the deaggregation of amphiphiles via power compensation. A concentrated aqueous solution of amphiphile (>>CAC) was titrated into a thermally controlled sample cell, initially containing pure water, in a series of discrete injections. Isothermal titration calorimetry was used to determine the critical aggregation concentration (CAC) and ΔHagg. Shown in FIG. 5 is the heat rate associated with each injection versus time for 9 (M-1,14,14). Shown in FIG. 6 is the integration of the heat per injection normalized by the number of moles of each injection versus the increasing concentration of amphiphile in the well. In FIG. 6, inset, CAC is determined by calculating the first derivative the heat curve.
During initial injections (Range I), measured heat changes are due to both the dilution of aggregates and deaggregation. This can be observed in the first 10 injections, where aggregates absorbed heat and disassociated into dissolved monomers. The heat change produced by each injection was approximately constant in this range. In Range II, injected aggregates don't fully dissociate, reducing the total absorbed heat for each subsequent injection. At concentrations well above the CAC (Range III), absorbed heat is attributed only to the dilution of aggregates and is approximately constant. […] CAC and thermodynamic data were not determined for the amphiphiles with the shortest tails [1 (M-P,8,8) and 6 (M-1,8,8)] because the heat evolved during injection was […] the threshold of the instrument.
The difference between the average heat of injections in Range I, representing the total heat due to the dilution of aggregates and deaggregation, and the average heat of injections in Range III, representing the heat due solely to the dilution of aggregates, gives the heat of deaggregation, ΔHdeagg. The ΔHdeagg for compound 9 (M-1,14,14) is 37 kJ/mol, corresponding to a heat of aggregate formation, ΔHagg, of −37 kJ/mol (ΔHagg=−ΔHdeagg).
The ΔGagg can be approximated for the aggregation of nonionic amphiphiles by the equation: ΔGagg=RT ln(CAC/55.5) (3)
where m is the concentration of counterions that associate with a aggregate and n is the number of monomers that associate to form an aggregate. […] BBA-Biomembranes. 2000, 1508, 69-85.)
The entropy of aggregation (ΔSagg) is dictated by a combination of entropic factors that favor or disfavor aggregate formation and can be approximated using the Gibbs-Helmholtz equation: ΔGagg=ΔHagg−TΔSagg (5)
CAC and ΔHagg were determined using a Nano-ITC (TA-Instruments). Prior to each experiment the sample cell was washed with dH2O (300 mL), ethanol (100 mL), dH2O (300 mL) and nanopure water (200 mL). Next, 950 μL of nanopure water was added to the sample cell. A concentrated aqueous solution (>>CAC) of amphiphile was prepared and equilibrated at 37° C. A 250 μL syringe was filled with the aqueous solution, and loaded into the Nano ITC. Multiple single injections in aliquots of 5 μL were injected into the sample cell with time intervals varying from 300 s to 1400 s. Samples were continuously stirred (300 rpm) throughout the titration. The Nano-Analyze program (TA-Instruments) was used to analyze the data. CAC and ΔHagg values reported are the average of two or more repeat experiments for each amphiphile.

Pseudomonas aeruginosa [4] = details: literature comparison values; cited from earlier work

CCCCCCCCCCCCCCCC[N+](C)(C)Cc1cc(C[N+](C)(C)C)cc(C[N+](C)(C)C)c1.[Br-].[Br-].[Br-] [Compound S5]
MIC E. faecalis (G+) (Enterococcus faecalis): 8 µM
MIC S. aureus (G+) (Staphylococcus aureus): 31 µM
MIC E. coli (G−) (Escherichia coli): 31 µM
MIC P. aeruginosa (G−) (Pseudomonas aeruginosa [1]): >250 µM
MIC S. agalactiae (G+) (Streptococcus agalactiae): 4 µM
ΔGagg [2]: -5.26 kcal/mol
−TΔSagg [2]: -2.03 kcal/mol
CAC [2]: 9.2 mM
MIC B. cereus (G+) (Bacillus cereus): 4 µM
ΔHagg [3]: -3.35 kcal/mol

CCCCCCCCCCCCCCCCCCCC[N+](C)(C)Cc1cc(C[N+](C)(C)C)cc(C[N+](C)(C)C)c1.[Br-].[Br-].[Br-] [Compound S7]
MIC E. faecalis (G+) (Enterococcus faecalis): 4 µM
MIC S. aureus (G+) (Staphylococcus aureus): 16 µM
MIC E. coli (G−) (Escherichia coli): 31 µM
MIC P. aeruginosa (G−) (Pseudomonas aeruginosa [1]): 250 µM
MIC S. agalactiae (G+) (Streptococcus agalactiae): 4 µM
ΔGagg [2]: -6.21 kcal/mol
−TΔSagg [2]: 0.382 kcal/mol
CAC [2]: 2.0 mM
MIC B. cereus (G+) (Bacillus cereus): 4 µM
ΔHagg [3]: -6.69 kcal/mol

CCCCCCCCCCCCCC[N+](C)(C)Cc1cc(C[N+](C)(C)C)cc(C[N+](C)(C)C)c1.[Br-].[Br-].[Br-] [Compound S4]
MIC E. faecalis (G+) (Enterococcus faecalis): 31 µM
MIC S. aureus (G+) (Staphylococcus aureus): 63 µM
MIC E. coli (G−) (Escherichia coli): 250 µM
MIC P. aeruginosa (G−) (Pseudomonas aeruginosa [1]): >250 µM
MIC S. agalactiae (G+) (Streptococcus agalactiae): 16 µM
ΔGagg [2]: -4.78 kcal/mol
−TΔSagg [2]: -2.39 kcal/mol
CAC [2]: 21 mM
MIC B. cereus (G+) (Bacillus cereus): 16 µM
ΔHagg [3]: -2.39 kcal/mol

CCCCCCCCCCCCCCCCCC[N+](C)(C)Cc1cc(C[N+](C)(C)C)cc(C[N+](C)(C)C)c1.[Br-].[Br-].[Br-] [Compound S6]
MIC E. faecalis (G+) (Enterococcus faecalis): 4 µM
MIC S. aureus (G+) (Staphylococcus aureus): 16 µM
MIC E. coli (G−) (Escherichia coli): 16 µM
MIC P. aeruginosa (G−) (Pseudomonas aeruginosa [1]): 125 µM
MIC S. agalactiae (G+) (Streptococcus agalactiae): 2 µM
ΔGagg [2]: -5.74 kcal/mol
−TΔSagg [2]: -0.574 kcal/mol
CAC [2]: 5.0 mM
MIC B. cereus (G+) (Bacillus cereus): 4 µM
ΔHagg [3]: -5.26 kcal/mol

CCCCCCCCCC[N+](C)(C)Cc1cc(C[N+](C)(C)C)cc(C[N+](C)(C)CCCCCCCCCC)c1.[Br-].[Br-].[Br-] [Compound 7]
MIC E. faecalis (G+) (Enterococcus faecalis): 8 µM
MIC S. aureus (G+) (Staphylococcus aureus): 16 µM
MIC E. coli (G−) (Escherichia coli): 125 µM
MIC P. aeruginosa (G−) (Pseudomonas aeruginosa [1]): >250 µM
MIC S. agalactiae (G+) (Streptococcus agalactiae): 4 µM
MIC B. cereus (G+) (Bacillus cereus): 8 µM
−TΔSmic [3]: 1.58 kcal/mol
ΔGmic [3]: -5.26 kcal/mol
CMC [3]: 12 mM
ΔHmic [3]: -3.59 kcal/mol
−TΔSagg term (sign, in words) [3]: negative

CCCCCCCCCCCC[N+](C)(C)Cc1cc(C[n+]2ccccc2)cc(C[N+](C)(C)CCCCCCCCCCCC)c1.[Br-].[Br-].[Br-] [Compound 3]
MIC E. faecalis (G+) (Enterococcus faecalis): 2 µM
MIC S. aureus (G+) (Staphylococcus aureus): 2 µM
MIC E. coli (G−) (Escherichia coli): 4 µM
MIC P. aeruginosa (G−) (Pseudomonas aeruginosa [1]): 8 µM
MIC S. agalactiae (G+) (Streptococcus agalactiae): 1 µM
MIC B. cereus (G+) (Bacillus cereus): 2 µM
−TΔSmic [3]: 0.741 kcal/mol
ΔGmic [3]: -6.21 kcal/mol
CMC [3]: 2.4 mM
ΔHmic [3]: -5.5 kcal/mol
−TΔSagg term (sign, in words) [3]: negative

CCCCCCCCCCCCCC[N+](C)(C)Cc1cc(C[n+]2ccccc2)cc(C[N+](C)(C)CCCCCCCCCCCCCC)c1.[Br-].[Br-].[Br-] [Compound 4]
MIC E. faecalis (G+) (Enterococcus faecalis): 4 µM
MIC S. aureus (G+) (Staphylococcus aureus): 4 µM
MIC E. coli (G−) (Escherichia coli): 16 µM
MIC P. aeruginosa (G−) (Pseudomonas aeruginosa [1]): 63 µM
MIC S. agalactiae (G+) (Streptococcus agalactiae): 4 µM
MIC B. cereus (G+) (Bacillus cereus): 8 µM
−TΔSmic [3]: -2.08 kcal/mol
ΔGmic [3]: -7.17 kcal/mol
CMC [3]: 0.56 mM
ΔHmic [3]: -9.08 kcal/mol
−TΔSagg term (sign, in words) [3]: positive

NC[C@H]1O[C@H](O[C@H]2[C@H](O)[C@@H](O[C@H]3O[C@H](CO)[C@@H](O)[C@H](N)[C@H]3O)[C@H](N)C[C@@H]2N)[C@H](N)C[C@@H]1O [tobramycin]
MIC against P. aeruginosa (comparison drugs) (Pseudomonas aeruginosa [4]): 6.4 µM (≈ 2.99 µg/mL)

CCCCCCCCCCCCCCCCCCCCCC[N+](C)(C)Cc1cc(C[N+](C)(C)C)cc(C[N+](C)(C)C)c1.[Br-].[Br-].[Br-] [Compound S8]
MIC E. faecalis (G+) (Enterococcus faecalis): >250 µM
MIC S. aureus (G+) (Staphylococcus aureus): >250 µM
MIC E. coli (G−) (Escherichia coli): 63 µM
MIC P. aeruginosa (G−) (Pseudomonas aeruginosa [1]): >250 µM
MIC S. agalactiae (G+) (Streptococcus agalactiae): >250 µM
ΔGagg [2]: -6.69 kcal/mol
−TΔSagg [2]: 1.22 kcal/mol
CAC [2]: 0.99 mM
MIC B. cereus (G+) (Bacillus cereus): >250 µM
ΔHagg [3]: -7.89 kcal/mol
